{"source": "patent US20050100594A1", "about": "“Pharmaceutical formulation containing muscle relaxant and COX-II inhibitor” (priority 2003, published 2005)", "origin": "cited, not measured here", "tested_on": "skeletal muscle fibers, neuromuscular junction, monosynaptic spinal reflexes", "settings": "animal models", "note": "Where a name gives a salt, the structure may show the parent alone.", "data": [{"smiles": "Clc1ccc2nsnc2c1NC1=NCCN1", "note": "[Tizanidine, 5-chloro-4-(2-imidazolin-2-ylamino)-2,1,3-benzothiodiazole hydrochloride]", "values": [{"measurement": "effect on monosynaptic spinal reflexes", "value": "no major effect"}, {"measurement": "effect on skeletal muscle fibers or the neuromuscular junction", "value": "no direct effect"}]}]}
